Values joined by “and” are separate entries in the source; they are usually repeats but may differ in a detail not shown here. Equal values may be shown once.
What was measured:
[1] = biological target: T1, bovine serum albumin (BSA) (Bos taurus, UniProt P02769); experiment: 3H-FL118 binding, Nanosep 3K centrifugal device; conditions: negative control protein
T1 construct: purchased EMD (Billerica, MA)
Procedure: Then, 5-10 μg of the FLAGR M Purification Kit (Signa)-purified Flag-USP2a and Flag-UbE2T proteins in a volume of 20-50 μL, respectively, was transferred into the sample reservoir of a 1.5 mL Nanosep 3K Centrifugal Device. In parallel, a negative control Nanosep 3K Centrifugal Devices containing 10 μg bovine serum albumin (BSA) in 50 μL volume was also set up. Then, the 3 prepared Nanosep 3K Devices were centrifuged at 10,000 rpm for 10-15 min to eliminate the solution and retain the proteins in the sample reservoir. […] Lastly, all three of the sample reservoir devices were transferred into a scintillation vial containing enough scintillation solution to cover the entire sample reservoir devices for tritium (3H) counting on the LS 6500 Scintillation System (Backman Couler™).

[2] = Rat toxicology/MTD, limited numbers, FL118-HPβCD complex powder suspension (Roswell Park); conditions: for MTD at 50 days: Sprague-Dawley, rat, in vivo, po, conservative MTD; for BASO / EOS / HCT / HGB / LYM / MCH / MCHC / MCV / MONO / MPV / NEUT / PDW / PLT / RBC / RDW-SD / RET / WBC / ALB / ALP / ALT / AMYL / BUN / CHOL / CREA / Ca / GLU / Na / PHOS / TBIL / TP: rats, oral; for ALB / ALP / ALT / AMYL / BUN / CHOL / CREA / Ca / GLU / Na / PHOS / TBIL / TP: serum
Procedure: Males and females housed separately in autoclaved polycarbonate/polysulfone microisolator cages (≤2 per cage) with autoclaved contact bedding. Environmental conditions in the animal housing room were maintained at an ambient temperature of 70° F.±3° F., relative humidity of 30%-70%, and a 12:12 light-dark cycle. Animal housing rooms were ventilated with 100% fresh, HEPA filtered air with 10-15 air changes per hour. […] Individual rats were identified via tail marking prior to dosing. Each rat received a unique identification number.
Rats were randomly assigned to 4 treatment groups consisting of 2 males and 2 females, and 1 male and 1 female for the vehicle control group.
In accordance with the Roswell Park Laboratory Animal Shared Resources (LASR) SOP, Physical examination was conducted on all rats' pre-study to evaluate general appearance, posture, behavioral status, respiratory system, skin, fur, eyes, nose, urine, feces, locomotion, and body orifices. Cage side clinical observations of experimental rats for mortality and signs of pharmacologic and/or toxicologic effects were conducted once daily in the morning on Days 1-50 of the study. Daily cage side clinical observations included but were not limited to evaluation of the general appearance, posture, behavioral status, respiratory system, skin, fur, eyes, nose, urine, feces, locomotion, and body orifices. The nature, onset, severity, and duration of all gross or visible pharmacologic or toxicologic signs were recorded. Rats were weighed and weights were recorded immediately prior to dosing, and then twice weekly and at termination, using a digital scale (Ohaus CS 2000 balance). […] Any rats in poor health were identified for further monitoring or possible euthanasia. Food consumption was qualitatively assessed daily and recorded. […] Blood samples were placed in pre-labeled serum separator tubes and in K3EDTA plastic tubes, and tightly capped. […] The following tests were conducted.
Clinical hematology: Blood samples were collected into tubes containing K3EDTA. Whole blood samples were stored on wet ice or under refrigeration (4° C.) until they were processed the same day using the IDEXX ProCyte A5088 Hematology Analyzer. The following hematopoietic parameters were evaluated for the whole blood: (1) Red Blood Cell Count (RBC, M/μL), (2) Hemoglobin (HGB, g/dL), (3) Hematocrit (HCT, %), (4) Mean Cell Volume (MCV, fL), (5) Mean Corpuscular Hemoglobin (MCH, pg), (6) Mean Corpuscular Hemoglobin Concentration (MCHC, g/dL), (7) Red Cell Distribution Width (RDW, %), (8) Reticulocytes, absolute (RET, K/μL), (9) Reticulocytes, relative (RET, %), (10) Platelet count (PLT, K/μL), (11) White Blood Cell Count (WBC, K/μL), (12) White Blood Cell Count Differential, absolute (WBCDa, L/μL), and (13) White Blood Cell Count Differential, relative (WBCDr, %).
Clinical chemistry: Blood samples were collected into serum separator tubes. Blood samples were stored at room temperature until they were centrifuged, and serum was removed. Samples were centrifuged at 3000 RPM for 15 minutes at ambient temperature.

P-gp [3] = experiment: in vitro; conditions: human
Procedure: Cell monolayers were grown to confluence on collagen-coated, microporous, polycarbonate membranes in 12-well Costar Transwell R plates. […] The permeability assay buffer was Hanks' balanced salt solution (HBSS) containing 10 mM HEPES and 15 mM glucose at a pH of 7.4. The buffer in the receiver chamber also contained 1% bovine serum albumin. […] Cells were first pre-incubated for 30 minutes with HBSS containing+/−1 μM valspodar. Cell monolayers were dosed on the apical side (A-to-B) or basolateral side (B-to-A) and incubated at 37° C. with 5% CO2 in a humidified incubator. Samples were taken from the donor and receiver chambers at 120 minutes. Each determination was performed in duplicate. The flux of co-dosed lucifer yellow was also measured for each monolayer to ensure no damage was inflicted to the cell monolayers during the flux period. All samples were assayed by LC-MS/MS using electrospray ionization. […] The apparent permeability (Papp) and percent recovery were calculated as follows:
Where, dCr/dt is the slope of the cumulative concentration in the receiver compartment versus time in μM s^−1;Vr is the volume of the receiver compartment in. cm^3; Vd is the volume of the donor compartment in cm^3; A is the area of the insert (1.13 cm^2 for 12-well Transwell); CA is the average of the nominal dosing concentration and the measured 120 minute donor concentration in μM; CN is the nominal concentration of the dosing solution in μM; Cr^Final is the cumulative receiver concentration in μM at the end of the incubation period; and Cd^Final is the concentration of the donor in μM at the end of the incubation period.
Efflux ratio (ER) is defined as Papp (B-to-A)/Papp (A-to-B)

[4] = biological target: human serum albumin (HSA) (Homo sapiens, UniProt P02768); experiment: UV spectra (310-450 nm) with HSA; assay type: physicochemical
TA1535 = experiment: Ames Bacterial Reverse Mutation Assay
Procedure: The Ames Bacterial Reverse Mutation (AB™) used five bacterial tester strains (TA97a, TA98, TA100, TA1535, WP2-uvrA).
Tester strains were added to flasks containing nutrient broth and incubated at 37+2° C. overnight. The flasks were removed from the overnight incubation and the final concentration was determined (the OD was measured and determined whether growth was suitable for testing). Top agar was melted, and 2.0 mL was dispensed into heated culture tubes. The S9 mix (metabolic activation) was prepared and stored on ice. […] Each culture tube was vortexed and immediately poured onto the labeled minimal glucose agar plates. All plates were inverted and placed into a 37±1° C. incubator for 48-72 hours. The plates were counted via an automated colony counter or by hand and the background lawn was microscopically evaluated for any signs of toxicity. Genotypic control plates were prepared for each tester strain and incubated for 24-72 hours at 37±1° C.

P-gp [5] = biological target: P-gp (Homo sapiens, UniProt P08183)
[6] = TA1535 partial repeat, 0.010 μM −S9
[7] = TA1535 partial repeat, 0.10 μM −S9
[8] = TA1535 partial repeat, 1.0 μM −S9

Sequence of P-gp (Homo sapiens, UniProt P08183) (P08183 whole entry): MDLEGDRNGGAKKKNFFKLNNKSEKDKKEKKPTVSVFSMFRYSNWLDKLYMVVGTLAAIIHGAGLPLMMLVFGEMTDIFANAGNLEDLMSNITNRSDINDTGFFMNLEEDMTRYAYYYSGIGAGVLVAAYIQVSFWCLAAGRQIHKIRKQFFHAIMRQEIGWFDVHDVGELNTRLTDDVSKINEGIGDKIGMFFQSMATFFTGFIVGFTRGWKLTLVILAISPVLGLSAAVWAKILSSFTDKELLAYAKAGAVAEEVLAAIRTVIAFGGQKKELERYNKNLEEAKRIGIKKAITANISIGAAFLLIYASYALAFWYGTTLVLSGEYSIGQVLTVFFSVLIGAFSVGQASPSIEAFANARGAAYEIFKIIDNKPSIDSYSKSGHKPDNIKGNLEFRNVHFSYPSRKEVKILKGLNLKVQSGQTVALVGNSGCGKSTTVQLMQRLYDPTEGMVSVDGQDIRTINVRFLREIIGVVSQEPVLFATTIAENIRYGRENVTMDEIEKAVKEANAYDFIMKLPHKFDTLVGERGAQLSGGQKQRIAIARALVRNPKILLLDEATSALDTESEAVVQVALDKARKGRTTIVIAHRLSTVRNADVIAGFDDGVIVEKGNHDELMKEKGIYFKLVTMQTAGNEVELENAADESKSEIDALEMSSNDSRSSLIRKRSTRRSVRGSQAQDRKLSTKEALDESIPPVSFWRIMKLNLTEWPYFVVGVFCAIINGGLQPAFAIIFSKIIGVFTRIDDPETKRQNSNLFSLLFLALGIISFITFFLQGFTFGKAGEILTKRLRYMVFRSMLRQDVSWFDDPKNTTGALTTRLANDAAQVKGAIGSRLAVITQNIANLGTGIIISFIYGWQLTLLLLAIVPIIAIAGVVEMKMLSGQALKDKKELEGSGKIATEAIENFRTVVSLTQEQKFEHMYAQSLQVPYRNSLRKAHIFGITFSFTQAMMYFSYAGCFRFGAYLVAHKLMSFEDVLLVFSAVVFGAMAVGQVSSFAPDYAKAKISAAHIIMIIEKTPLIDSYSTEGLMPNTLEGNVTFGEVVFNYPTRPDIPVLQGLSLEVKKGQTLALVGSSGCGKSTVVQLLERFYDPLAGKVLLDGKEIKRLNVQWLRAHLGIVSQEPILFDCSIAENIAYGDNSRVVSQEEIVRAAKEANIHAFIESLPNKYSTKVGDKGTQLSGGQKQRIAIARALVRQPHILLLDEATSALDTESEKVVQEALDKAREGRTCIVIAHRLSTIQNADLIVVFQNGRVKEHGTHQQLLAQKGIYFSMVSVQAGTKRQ
Sequence of human serum albumin (HSA) (P02768 25-609): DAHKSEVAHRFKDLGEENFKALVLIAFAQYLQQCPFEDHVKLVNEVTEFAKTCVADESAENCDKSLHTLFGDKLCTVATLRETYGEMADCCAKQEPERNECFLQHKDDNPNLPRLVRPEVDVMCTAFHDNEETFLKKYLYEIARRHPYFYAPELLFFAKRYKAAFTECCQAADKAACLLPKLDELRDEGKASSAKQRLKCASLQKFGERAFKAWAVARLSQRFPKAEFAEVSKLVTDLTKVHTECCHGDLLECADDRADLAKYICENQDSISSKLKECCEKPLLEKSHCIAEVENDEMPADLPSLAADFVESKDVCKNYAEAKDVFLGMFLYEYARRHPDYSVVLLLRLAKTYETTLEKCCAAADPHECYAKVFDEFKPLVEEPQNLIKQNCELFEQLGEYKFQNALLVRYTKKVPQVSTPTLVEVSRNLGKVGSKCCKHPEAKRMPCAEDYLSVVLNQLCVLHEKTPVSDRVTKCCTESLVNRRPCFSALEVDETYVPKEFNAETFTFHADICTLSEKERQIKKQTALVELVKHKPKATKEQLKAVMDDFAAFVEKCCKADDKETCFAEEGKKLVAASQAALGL
T1 sequence (P02769 25-607): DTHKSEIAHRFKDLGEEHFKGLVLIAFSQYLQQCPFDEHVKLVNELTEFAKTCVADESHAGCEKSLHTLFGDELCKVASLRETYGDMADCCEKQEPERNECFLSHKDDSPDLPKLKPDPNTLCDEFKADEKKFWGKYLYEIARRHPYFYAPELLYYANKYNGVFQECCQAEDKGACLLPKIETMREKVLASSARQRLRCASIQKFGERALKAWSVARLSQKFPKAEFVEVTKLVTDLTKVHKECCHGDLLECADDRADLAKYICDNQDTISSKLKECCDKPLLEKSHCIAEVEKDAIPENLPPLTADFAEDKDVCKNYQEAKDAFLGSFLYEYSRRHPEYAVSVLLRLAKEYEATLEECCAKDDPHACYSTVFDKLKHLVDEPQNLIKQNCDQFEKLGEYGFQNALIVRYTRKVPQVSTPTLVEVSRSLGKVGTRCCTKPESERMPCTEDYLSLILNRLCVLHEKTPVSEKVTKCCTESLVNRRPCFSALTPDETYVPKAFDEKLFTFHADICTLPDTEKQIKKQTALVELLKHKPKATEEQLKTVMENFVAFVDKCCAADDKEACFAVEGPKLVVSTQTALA

CCC1(O)C(=O)OCc2c1cc1n(c2=O)Cc2cc3cc4c(cc3nc2-1)OCO4 (centres unmarked) [FL118]
3H CPM counts in retained parts [1]: 4,230 ± 370 CPM
gross pathology ([2]; all doses): no obvious FL118-related gross pathology macroscopic findings
clinical signs, female rats ([2]; all treatment groups): no serious adverse clinical signs
weight loss, female rats ([2]; all treatment groups): ≤ 10%
MTD at 50 days ([2]; female, female rats): ≤ 4.77 mg/kg
MTD at 50 days ([2]; male, male rats): ≥ 2.44 mg/kg
BASO ([2]; 1.56 mg/kg): 0.01-0.02 K/μL
EOS ([2]; 1.56 mg/kg): 0.04-0.07 K/μL
HCT ([2]; 1.56 mg/kg): 44.5-50.5%
HGB ([2]; 1.56 mg/kg): 14.2 to 16 g/dL
LYM ([2]; 1.56 mg/kg): 5.56-8.7 K/μL
MCH ([2]; 1.56 mg/kg): 17.8 to 18.6 pg
MCHC ([2]; 1.56 mg/kg): 31.2 to 32.1 g/dL
MCV ([2]; 1.56 mg/kg): 56.1 to 58.6 fL
MONO ([2]; 1.56 mg/kg): 0.19-0.58 K/μL
MPV ([2]; 1.56 mg/kg): 7.9 to 8.1 fL
NEUT ([2]; 1.56 mg/kg): 0.38-1.37 K/μL
PDW ([2]; 1.56 mg/kg): 9.2 to 10 fL
PLT ([2]; 1.56 mg/kg): 864-1070 K/μL
RBC ([2]; 1.56 mg/kg): 7.67-8.73 M/μL
RDW-SD ([2]; 1.56 mg/kg): 30 to 33.7 fL
RET ([2]; 1.56 mg/kg): 401-524 K/μL
WBC ([2]; 1.56 mg/kg): 6.5-10.7 K/μL
BASO ([2]; 3.05 mg/kg): 0.01-0.04 K/μL
EOS ([2]; 3.05 mg/kg): 0.02-0.1 K/μL
HCT ([2]; 3.05 mg/kg): 34.6-46.5%
HGB ([2]; 3.05 mg/kg): 11.8 to 14.8 g/dL
LYM ([2]; 3.05 mg/kg): 4.83-6.03 K/μL
MCH ([2]; 3.05 mg/kg): 18.4 to 19.2 pg
MCHC ([2]; 3.05 mg/kg): 31.8 to 34.1 g/dL
MCV ([2]; 3.05 mg/kg): 55.6 to 57.8 fL
MONO ([2]; 3.05 mg/kg): 0.09-0.43 K/μL
MPV ([2]; 3.05 mg/kg): 7.6 to 7.8 fL
NEUT ([2]; 3.05 mg/kg): 0.92-1.42 K/μL
PDW ([2]; 3.05 mg/kg): 9.4 to 9.9 fL
PLT ([2]; 3.05 mg/kg): 665-1259 K/μL
RBC ([2]; 3.05 mg/kg): 6.15-8.04 M/μL
RDW-SD ([2]; 3.05 mg/kg): 29.3 to 35.3 fL
RET ([2]; 3.05 mg/kg): 208-625 K/μL
WBC ([2]; 3.05 mg/kg): 6.0-7.9 K/μL
ALB ([2]; 1.56 mg/kg): 3.4 to 4.4 g/dL
ALP ([2]; 1.56 mg/kg): 111-239 U/L
ALT ([2]; 1.56 mg/kg): 63-134 U/L
AMYL ([2]; 1.56 mg/kg): 1547-2358. U/L
BUN ([2]; 1.56 mg/kg): 15 to 20 mg/dL
CHOL ([2]; 1.56 mg/kg): 89 to 111 mg/dL
CREA ([2]; 1.56 mg/kg): 0.1 to 0.5 mg/dL
Ca ([2]; 1.56 mg/kg): 11.2 to 11.6 mg/dL
GLU ([2]; 1.56 mg/kg): 206 to 296 mg/dL
Na ([2]; 1.56 mg/kg): 143 to 154 mmol/L
PHOS ([2]; 1.56 mg/kg): 10.8 to 13.2 mg/dL
TBIL ([2]; 1.56 mg/kg): 0.2 to 0.8 mg/dL
TP ([2]; 1.56 mg/kg): 6.2 to 6.7 g/dL
ALB ([2]; 3.05 mg/kg): 3.6 to 4.3 g/dL
ALP ([2]; 3.05 mg/kg): 37-168 U/L
ALT ([2]; 3.05 mg/kg): 85-111 U/L
AMYL ([2]; 3.05 mg/kg): 1614-2162. U/L
BUN ([2]; 3.05 mg/kg): 15 to 21 mg/dL
CHOL ([2]; 3.05 mg/kg): 38 to 87 mg/dL
CREA ([2]; 3.05 mg/kg): 0.1 to 0.5 mg/dL
Ca ([2]; 3.05 mg/kg): 11.3 to 11.9 mg/dL
GLU ([2]; 3.05 mg/kg): 282 to 438 mg/dL
Na ([2]; 3.05 mg/kg): 147 to 154 mmol/L
PHOS ([2]; 3.05 mg/kg): 4.1 to 10.5 mg/dL
TBIL ([2]; 3.05 mg/kg): 0.3 to 0.7 mg/dL
TP ([2]; 3.05 mg/kg): 5.4 to 6.3 g/dL
mortality ([2]; weekly oral gavage, 7 doses): No mortality occurred
Papp A→B at 120 min, 1 μM (P-gp [3]; Caco-2, pH 7.4, Papp AVG, Caco-2, A-to-B, without valspodar): 6.97 ×10⁻⁶ cm/s
Papp B→A at 120 min, 1 μM (P-gp [3]; Caco-2, pH 7.4, Papp AVG, Caco-2, B-to-A, without valspodar): 8.1 ×10⁻⁶ cm/s
Papp A→B at 120 min, 1 μM (P-gp [3]; Caco-2, pH 7.4, Papp R1, Caco-2, A-to-B, without valspodar): 7.27 ×10⁻⁶ cm/s
Papp B→A at 120 min, 1 μM (P-gp [3]; Caco-2, pH 7.4, Papp R1, Caco-2, B-to-A, without valspodar): 7.35 ×10⁻⁶ cm/s
Papp A→B at 120 min, 1 μM (P-gp [3]; Caco-2, pH 7.4, Papp R2, Caco-2, A-to-B, without valspodar): 6.67 ×10⁻⁶ cm/s
Papp B→A at 120 min, 1 μM (P-gp [3]; Caco-2, pH 7.4, Papp R2, Caco-2, B-to-A, without valspodar): 8.86 ×10⁻⁶ cm/s
recovery at 120 min, 1 µM (P-gp [3]; Caco-2, pH 7.4, Recovery (%), Caco-2, A-to-B, without valspodar): 43%
recovery at 120 min, 1 µM (P-gp [3]; Caco-2, pH 7.4, Recovery (%), Caco-2, B-to-A, without valspodar): 48%
recovery at 120 min, 1 µM (P-gp [3]; Caco-2, pH 7.4, with valspodar 1 µM, Recovery (%), Caco-2, A-to-B, + 1 μM Valspodar): 46%
recovery at 120 min, 1 µM (P-gp [3]; Caco-2, pH 7.4, with valspodar 1 µM, Recovery (%), Caco-2, B-to-A, + 1 μM Valspodar): 48%
interaction with HSA (UV absorbance decrease) ([4]; 10 μM in PBS with 4% HSA): strong interaction
interaction with HSA (UV absorbance decrease) ([4]; 10 μM, high NaCl salt, 4% HSA): strong interaction
bacterial strain mutation (TA1535): does not induce
Background Lawn Code (TA1535; TA1535, 0.010 μM +S9): 1
Colony Counts Average (TA1535; TA1535, 0.010 μM +S9): 14
Colony Counts Replicate 1-3 (TA1535; TA1535, 0.010 μM +S9): 20 and 9 and 13
Background Lawn Code (TA1535; TA1535, 0.010 μM −S9): 1
Colony Counts Average (TA1535; TA1535, 0.010 μM −S9): 39
Colony Counts Replicate 1-3 (TA1535; TA1535, 0.010 μM −S9): 39 and 37 and 41
Background Lawn Code (TA1535; TA1535, 0.10 μM +S9): 1
Colony Counts Average (TA1535; TA1535, 0.10 μM +S9): 14
Colony Counts Replicate 1-3 (TA1535; TA1535, 0.10 μM +S9): 13 and 8 and 20
Background Lawn Code (TA1535; TA1535, 0.10 μM −S9): 1
Colony Counts Average (TA1535; TA1535, 0.10 μM −S9): 61
Colony Counts Replicate 1-3 (TA1535; TA1535, 0.10 μM −S9): 54 and 62 and 67
Background Lawn Code (TA1535; TA1535, 1.0 μM +S9): 1
Colony Counts Average (TA1535; TA1535, 1.0 μM +S9): 12
Colony Counts Replicate 1-3 (TA1535; TA1535, 1.0 μM +S9): 12 and 10 and 15
Background Lawn Code (TA1535; TA1535, 1.0 μM −S9): 1
Colony Counts Average (TA1535; TA1535, 1.0 μM −S9): 25
Colony Counts Replicate 1-3 (TA1535; TA1535, 1.0 μM −S9): 23 and 21 and 30
Background Lawn Code (TA1535; [6]): 1
Colony Counts Average (TA1535; [6]): 12
Colony Counts Replicate 1-3 (TA1535; [6]): 13 and 12 (2×)
Background Lawn Code (TA1535; [7]): 1
Colony Counts Average (TA1535; [7]): 14
Colony Counts Replicate 1-3 (TA1535; [7]): 16 and 15 and 10
Background Lawn Code (TA1535; [8]): 1
Colony Counts Average (TA1535; [8]): 12
Colony Counts Replicate 1-3 (TA1535; [8]): 11 and 13 and 12
mean revertant colonies over negative control (TA1535; repeat assay, -S9 condition): less than 2 fold
inhibition of P-gp transport of digoxin (P-gp [5]; 1.0 μM FL118): does not inhibit digoxin acting as a BCRP substrate
P-gp Inhibition Potential Classification (P-gp [5]; Caco-2, digoxin as substrate, 1.0 μM FL118 or 1.0 μM Valspodar): Negative (without inhibitor, and reduced by <50 with inhibitor: Negative)

Reference: patent publication US20250312469A1 (CANGET BIOTEKPHARMA, priority 2024, published 2025)
